Test results: patent US8350027B2, “Dual-acting pyrazole antihypertensive agents” (Theravance, Inc., priority 2009, dated 2013)

Tests used:
NEP enzyme = target: T1, NEP enzyme (Homo sapiens, UniProt P08473); experiment: NEP enzyme inhibition assay (fluorogenic peptide substrate); format: biochemical; details: values given as lower bounds; * = prodrugs, may not exhibit NEP activity in an in vitro assay; read-out: NEP pIC50 (converted)
T1 construct: purchased R&D Systems, Minneapolis, Minn; 1182-ZN
T1 sequence (P08473 52-750 limits assumed): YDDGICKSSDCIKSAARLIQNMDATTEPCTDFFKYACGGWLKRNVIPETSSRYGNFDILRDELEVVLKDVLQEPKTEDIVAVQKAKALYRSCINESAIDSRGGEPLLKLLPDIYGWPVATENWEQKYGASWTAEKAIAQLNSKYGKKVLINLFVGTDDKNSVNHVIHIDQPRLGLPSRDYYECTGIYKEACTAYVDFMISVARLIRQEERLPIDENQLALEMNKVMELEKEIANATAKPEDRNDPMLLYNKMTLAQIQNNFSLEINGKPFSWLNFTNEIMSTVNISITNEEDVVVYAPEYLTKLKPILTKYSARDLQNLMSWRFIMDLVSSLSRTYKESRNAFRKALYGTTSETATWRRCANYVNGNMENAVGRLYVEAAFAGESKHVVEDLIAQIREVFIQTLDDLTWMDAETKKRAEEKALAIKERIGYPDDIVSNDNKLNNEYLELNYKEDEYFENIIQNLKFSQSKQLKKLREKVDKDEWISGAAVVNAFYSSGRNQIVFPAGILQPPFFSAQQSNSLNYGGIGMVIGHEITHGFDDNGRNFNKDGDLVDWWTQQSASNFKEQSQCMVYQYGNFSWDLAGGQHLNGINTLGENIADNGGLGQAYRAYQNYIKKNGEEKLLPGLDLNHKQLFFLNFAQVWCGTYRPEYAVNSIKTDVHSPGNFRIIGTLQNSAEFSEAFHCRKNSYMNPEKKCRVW
Procedure, shortened: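 Recombinant human NEP was run with Mca-BK2 (10 μM) at room temperature in Tris buffer with 1 μM Zn. Compounds (10 μM–20 pM, 12 points) were pre-equilibrated 10 min, then reacted 20 min and acid-stopped. Fluorescence ex 320/em 405 nm, one-site competition fit gives pIC50. Thiol compounds may be pre-treated with 400 μM TCEP.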

human AT1 receptor = target: T2, human AT1 receptor (Homo sapiens, UniProt P30556); experiment: AT1 radioligand binding assay (displacement of [Eu]AngII); details: membranes of CHO-K1 cells expressing cloned human AT1 receptor; values given as lower bounds; read-out: AT1 pKi (converted)
T2 construct: expressed in transfected cells; host or cells: CHO-K1
T2 sequence (P30556 1-359): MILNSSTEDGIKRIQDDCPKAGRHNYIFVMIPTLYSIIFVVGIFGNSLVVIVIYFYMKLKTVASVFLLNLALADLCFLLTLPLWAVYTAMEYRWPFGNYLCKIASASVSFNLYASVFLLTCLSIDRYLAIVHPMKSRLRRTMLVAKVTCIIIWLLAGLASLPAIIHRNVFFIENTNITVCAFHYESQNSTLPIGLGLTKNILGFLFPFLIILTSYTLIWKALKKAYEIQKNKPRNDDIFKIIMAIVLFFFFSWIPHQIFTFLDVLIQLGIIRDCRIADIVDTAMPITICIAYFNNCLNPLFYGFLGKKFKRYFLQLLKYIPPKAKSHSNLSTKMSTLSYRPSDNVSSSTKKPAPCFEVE
Procedure, shortened: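 Membranes from CHO-K1 cells stably expressing cloned human AT1, 0.2 μg protein, in 50 mM Tris/HCl pH 7.5, 5 mM MgCl2, 0.025% BSA. Compounds displaced [Eu]AngII over 120 min in the dark at room temperature or 37° C; filter-bound TRF read. Nonspecific binding with 10 μM angiotensin II; IC50 converted to Ki via Cheng-Prusoff, reported as pKi.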

Structure (SMILES)	IC50 (NEP enzyme) [nM]	Ki (human AT1 receptor) [nM]
CCCc1cc(C(=O)N[C@H](Cc2ccccc2)[C@@H](O)C(=O)O)nn1Cc1ccc(-c2ccccc2S(=O)(=O)NC(=O)[C@H](C)O)cc1 [Example 7-13, (2R,3R)-2-Hydroxy-3-({1-[2′-((S)-2-hydroxypropionylsulfamoyl)biphenyl-4-ylmethyl]-5-propyl-1H-pyrazole-3-carbonyl}amino)-4-phenylbutyric acid]	≤ 100	≤ 10
CCCc1cc(C(=O)N[C@H](Cc2ccccc2)[C@@H](O)C(=O)O)nn1Cc1ccc(-c2ccccc2S(=O)(=O)NC(=O)C(C)(C)O)cc1 [Example 7-14, (2R,3R)-2-Hydroxy-3-({1-[2′-(2-hydroxy-2-methylpropionylsulfamoyl)biphenyl-4-ylmethyl]-5-propyl-1H-pyrazole-3-carbonyl}amino)-4-phenylbutyric acid]	≤ 100	≤ 10
CCCc1cc(C(=O)N[C@H](Cc2ccccc2)[C@@H](O)C(=O)O)nn1Cc1ccc(-c2ccccc2S(=O)(=O)NC(=O)CO)cc1 [Example 7-15, (2R,3R)-2-Hydroxy-3-({1-[2′-(2-hydroxyacetylsulfamoyl)biphenyl-4-ylmethyl]-5-propyl-1H-pyrazole-3-carbonyl}amino)-4-phenylbutyric acid]	≤ 100	≤ 10
CCCc1cc(C(=O)N[C@H](Cc2ccccc2)[C@@H](O)C(=O)O)nn1Cc1ccc(-c2ccccc2S(=O)(=O)NC(=O)[C@@H](C)O)cc1 [Example 7-16, (2R,3R)-2-Hydroxy-3-({1-[2′-((R)-2-hydroxypropionylsulfamoyl)biphenyl-4-ylmethyl]-5-propyl-1H-pyrazole-3-carbonyl}amino)-4-phenylbutyric acid]	≤ 100	≤ 10
CCCc1cc(C(=O)N[C@H](Cc2ccccc2)[C@@H](O)C(=O)O)nn1Cc1ccc(-c2ccccc2S(=O)(=O)NC(=O)CCOC)cc1 [Example 7-17, (2R,3R)-2-Hydroxy-3-({1-[2′-(3-methoxy-propionylsulfamoyl)biphenyl-4-ylmethyl]-5-propyl-1H-pyrazole-3-carbonyl}amino)-4-phenylbutyric acid]	≤ 100	≤ 10
CCCc1cc(C(=O)N[C@@H](CC(=O)O)Cc2ccccc2Cl)nn1Cc1ccc(-c2ccccc2S(=O)(=O)NC(=O)COC)cc1 [Example 7-18, (R)-4-(2-Chlorophenyl)-3-({1-[2′-(2-methoxyacetylsulfamoyl)biphenyl-4-ylmethyl]-5-propyl-1H-pyrazole-3-carbonyl}amino)butyric acid]	≤ 1000	≤ 10
CCCc1cc(C(=O)N[C@H](Cc2ccccc2)[C@@H](O)C(=O)O)nn1Cc1ccc(-c2ccccc2S(=O)(=O)NC(=O)C(C)(C)N)cc1 [Example 7-19, (2R,3R)-3-({1-[2′-(2-Amino-2-methylpropionylsulfamoyl)biphenyl-4-ylmethyl]-5-propyl-1H-pyrazole-3-carbonyl}amino)-2-hydroxy-4-phenylbutyric acid]	≤ 1000	≤ 100
CCCc1cc(C(=O)N[C@H](Cc2ccccc2)[C@@H](O)C(=O)O)nn1Cc1ccc(-c2ccccc2S(=O)(=O)NC(=O)N(C)C)cc1 [Example 7-20, (2R,3R)-3-(1-((2′-(N-(dimethylcarbamoyl)sulfamoyl)biphenyl-4-yl)methyl)-5-propyl-1H-pyrazole-3-carboxamido)-2-hydroxy-4-phenylbutanoic acid]	≤ 100	≤ 10
CCCc1cc(C(=O)N[C@H](Cc2ccccc2)[C@@H](O)C(=O)O)nn1Cc1ccc(-c2ccccc2S(=O)(=O)NC(=O)N2CCCC2)cc1 [Example 7-21, (2R,3R)-2-Hydroxy-4-phenyl-3-[(5-propyl-1-{2′-[(pyrrolidine-1-carbonyl)sulfamoyl]biphenyl-4-ylmethyl}-1H-pyrazole-3-carbonyl)amino]butyric acid]	≤ 100	≤ 100
CCCc1cc(C(=O)N[C@H](Cc2ccccc2)[C@@H](O)C(=O)O)nn1Cc1ccc(-c2ccccc2S(=O)(=O)NC(=O)N2CCOCC2)cc1 [Example 7-22, (2R,3R)-2-Hydroxy-3-[(1-{2′-[(morpholine-4-carbonyl)sulfamoyl]biphenyl-4-ylmethyl}-5-propyl-1H-pyrazole-3-carbonyl)amino]-4-phenylbutyric acid]	≤ 100	≤ 100
CCCc1cc(C(=O)N[C@@H](CS)Cc2ccccc2)nn1Cc1ccc(-c2ccccc2C(=O)O)cc1F [Example 8, 4′-[3-((R)-1-Benzyl-2-mercaptoethylcarbamoyl)-5-propylpyrazol-1-ylmethyl]-3′-fluorobiphenyl-2-carboxylic acid]	≤ 100	≤ 100
CCCc1cc(C(=O)N[C@@H](CS)CC(C)C)nn1Cc1ccc(-c2ccccc2C(=O)O)cc1F [Example 9-1, 3′-Fluoro-4′-[3-((R)-1-mercaptomethyl-3-methylbutylcarbamoyl)-5-propylpyrazol-1-ylmethyl]biphenyl-2-carboxylic acid]	≤ 100	≤ 100
CCOc1cc(C(=O)N[C@@H](CS)Cc2ccccc2)nn1Cc1ccc(-c2ccccc2C(=O)O)cc1F [Example 9-2, 4′-[3-((R)-1-Benzyl-2-mercaptoethylcarbamoyl)-5-ethoxypyrazol-1-ylmethyl]-3′-fluorobiphenyl-2-carboxylic acid]	≤ 100	≤ 100
CCCCc1cc(C(=O)N[C@@H](CS)CC(C)C)nn1Cc1ccc(-c2ccccc2C(=O)O)cc1F [Example 9-3, 4′-[5-Butyl-3-((R)-1-mercaptomethyl-3-methylbutylcarbamoyl)-pyrazol-1-ylmethyl]-3′-fluorobiphenyl-2-carboxylic acid]	≤ 100	≤ 100
CCCCc1cc(C(=O)N[C@@H](CS)Cc2ccccc2)nn1Cc1ccc(-c2ccccc2C(=O)O)cc1F [Example 9-4, 4′-[3-((R)-1-Benzyl-2-mercaptoethylcarbamoyl)-5-butylpyrazol-1-ylmethyl]-3′-fluorobiphenyl-2-carboxylic acid]	≤ 100	≤ 100
CCCc1cc(C(=O)N[C@H](Cc2ccccc2)[C@@H](O)C(=O)O)nn1Cc1ccc(-c2ccccc2C(=O)O)cc1 [Example 9-5, 4′-[3-((1R,2R)-1-Benzyl-2-carboxy-2-hydroxyethylcarbamoyl)-5-propylpyrazol-1-ylmethyl]biphenyl-2-carboxylic acid]	≤ 100	≤ 100
CCCc1cc(C(=O)N[C@@H](CS)Cc2ccccc2)nn1Cc1ccc(-c2ccccc2C(=O)O)cc1 [Example 9-6, 4′-[3-((R)-1-Mercaptomethyl-2-phenylethylcarbamoyl)-5-propylpyrazol-1-ylmethyl]biphenyl-2-carboxylic acid]	≤ 100	≤ 100
CCCc1cc(C(=O)N[C@H](Cc2ccccc2)[C@@H](O)C(=O)O)nn1Cc1ccc(-c2ccccc2C(=O)O)c(F)c1F [Example 9-7, 4′-[3-((1R,2R)-1-Benzyl-2-carboxy-2-hydroxyethylcarbamoyl)-5-propylpyrazol-1-ylmethyl]-2′,3′-difluorobiphenyl-2-carboxylic acid]	≤ 100	≤ 100
CCCc1cc(C(=O)N[C@@H](CC(=O)O)Cc2ccccc2Cl)nn1Cc1ccc(-c2ccccc2-c2nnn[nH]2)nc1 [Example 10, (R)-4-(2-Chlorophenyl)-3-[(5-propyl-1-{6-[2-(1H-tetrazol-5-yl)phenyl]pyridin-3-ylmethyl}-1H-pyrazole-3-carbonyl)amino]butyric Acid]	≤ 100	≤ 10
CCCc1cc(C(=O)N[C@@H](CC(=O)O)Cc2ccccc2C(F)(F)F)nn1Cc1ccc(-c2ccccc2-c2nnn[nH]2)nc1 [Example 11, (R)-3-[(5-Propyl-1-{6-[2-(1H-tetrazol-5-yl)-phenyl]-pyridin-3-ylmethyl}-1H-pyrazole-3-carbonyl)-amino]-4-(2-trifluoromethylphenyl)butyric Acid]	≤ 100	≤ 10
CCCc1cc(C(=O)N[C@@H](CC(=O)O)Cc2ccccc2F)nn1Cc1ccc(-c2ccccc2-c2nnn[nH]2)nc1 [Example 12, (R)-4-(2-Fluorophenyl)-3-[(5-propyl-1-{6-[2-(1H-tetrazol-5-yl)phenyl]pyridin-3-ylmethyl}-1H-pyrazole-3-carbonyl)amino]butyric acid]	≤ 100	≤ 10
CCCc1cc(C(=O)N[C@H](Cc2ccccc2)[C@@H](O)C(=O)O)nn1Cc1ccc(-c2ccccc2S(=O)(=O)NC(C)=O)nc1 [Example 13, (2R,3R)-3-({1-[6-(2-Acetylsulfamoylphenyl)pyridin-3-ylmethyl]-5-propyl-1H-pyrazole-3-carbonyl}amino)-2-hydroxy-4-phenylbutyric Acid]	≤ 100	≤ 100
CCCc1cc(C(=O)N[C@H](Cc2ccccc2)[C@@H](O)C(=O)O)nn1Cc1ccc(-c2ccccc2-c2nnn[nH]2)nc1 [Example 14-1, (2R,3R)-2-Hydroxy-4-phenyl-3-[(5-propyl-1-{6-[2-(1H-tetrazol-5-yl)-phenyl]pyridin-3-ylmethyl}-1H-pyrazole-3-carbonyl)amino]butyric acid]	≤ 100	≤ 10
